According to patent US4957926A, “Method of treating herpesviruses” (priority 1988, dated 1990):
Entries after “also recorded” stand apart in the source; their conditions may differ. Read-outs that look alike come from different tables or passages of the source.

Key:
[1] = tested on: Cytomegalovirus (Viral Strain Towne); assay: Yield Reduction Assay against infections with CMV (Towne strain); assay type: cell-based; conditions: for Plaque Count (infectivity titre): 10^1 dil.; for activity at 500 µM / activity at 2000 µM: read-out: % Virus Control
Procedure: Antiviral activities of N-Bu-DNJ and comparative test compounds against infections with CMV (Towne strain) were also measured by the yield reduction assay as follows:
HEF cells (MRC-5) were infected at high multiplicity of infection (about one p.f.u. per cell) and incubated with various concentrations of the test compounds for 5 and 6 days post infection. The level of infectious virus shed into the extracellular fluid was determined at 5 and 6 days by plaque assays as described above, using serial dilution of extracellular fluid to bring readings on scale.
In Table VI, to calculate plaque-forming units (PFU) of the maintenance medium overlayering HEF cells, the plaque count at the most sensitive dilution (from Table V) was multiplied by dilution value and then by 5 (0.2 ml sample volumes used in test) to give PFU (per ml maintenance medium). (e.g. calculation of drug control: 31×10^3 ×5=1.6×10^5 PFU).

[2] = tested on: Cytomegalovirus (Viral Strain Towne); assay: Cytomegalovirus Plaque Reduction Assay; assay type: cell-based
Excerpt: (§1) For testing the N-Bu-DNJ against HSV, the HSV Type II strain HG52 described by Timbury, J. Gen. Virol. 13, 373-376 (1971), and Davis et al., Analyst 110, 605-609 (1985), is useful. For testing against CMV, the prototype CMV ADl69 strain described, for example, by Tyms et al., J. Gen. Virol. 68, 1563-1573 (1987), and in U.S. Pat. No. 4,743,560, is useful. Another useful CMV strain is the Towne strain described by Glazer et al., Ann. Inter. Med. 91, 676-683 (1979).
(§2) Human embryo fibroblast cells (HEF) were grown in Eagles minimal essential medium supplemented with 7% fetal calf serum (FCS), 9 mM sodium bicarbonate and 7 mM HEPES buffer. In maintenance medium the supplements were adjusted to 2% FCS, 13 mM sodium bicarbonate and 14 mM HEPES. CMV, strain Towne, and HSV type II, strain […], were used in the following tests. CMV virus stocks were prepared and stored by technique as previously described by Tyms & Williamson, Nature 297, 690-691 […]. Herpes virus stocks were prepared and stored by technique as previously described by Davis et al., Analyst 110, 605-609 (1985). The HEF were human embryonic lung fibroblasts, strain MRC-5, as described by Tyms and Williamson, Nature 297, 690-691 (1982).
(§3) For plaque reduction assays, 24-well culture trays were seeded with HEF cells. Confluent monolayers were infected with virus to give initially about 100 plaque-forming-units (p.f.u.) per well. After a one hour absorption period the inocula were replaced by l.5ml of a maintenance medium incorporating 0.5% low gelling temperature agarose, supplemented with various concentrations of test compound. For tests with CMV, infected monolayers were fixed with 5% formalin in phosphate buffered saline (PBS) at 6-8 days post-infection and stained with 0.3% methylene blue after removal of the overlay; whereas, tests with HSV were conducted in the same manner but with the monolayer fixing at 2 days post infection. The mean plaque number was calculated from a multiple series of counts (e.g., duplicate, triplicate or quadruplicate), converted to a percentage of untreated controls and values plotted against the log10 drug concentration. The 50% effective dose (ED50) was determined from best line fits for the curves.
In a similar manner, the Effective Dosage Values (ED50) were determined from the curves of FIG. 1. A least squares fit of the data of FIG. 1 to an equation of the form: y=mx+b gave the following values: […]
From these values, a 50% effective dose (ED50) was calculated to give the following values: […]

[3] = tested on: HEF cells (strain MRC-5); assay: HEF cell growth / monolayer appearance in HSV type II plaque reduction assay; assay type: cell-based, human; conditions: all concentrations (0.56-4.5 mM)
Procedure: as §3

[4] = Fleet et al., compound No. 57 vs. No. 16; cited from earlier work
[5] = tested on: HSV type I; assay: preliminary tests with a HSV type I strain which did not form multinucleated giant cells; assay type: cell-based; conditions: strain not forming giant cells
Excerpt: The formation of multinucleated giant cells (syncytia), which result from the fusion of T4 cells with each other, is one of the most striking properties of HIV [Walker et al., Proc. Natl. Acad. Sci. USA 84, 8120-8124 (1987); Gruters et al., Nature 330, 74-77 (1987)]. Some, but not all, HSV strains also produce these multinucleated giant cells in vitro cell culture.

[6] = tested on: Herpes Simplex Type II (Viral Strain HG52); assay: Herpes Simplex Type II Plaque Reduction Assay; assay type: cell-based; conditions: for Plaque Count: replicate counts
Excerpt: as §1, §2, §3
The mean plaque numbers determined on HEF cells exposed to varying amount of N-Bu-DNJ, N-Me-DNJ, N-He-DNJ, 2-deoxy-D-glucose and castanospermine were converted to percentage values (plaque count in presence of drug divided by mean value of untreated controls×100), and plotted as a function of drug concentration [drug (mM)].
The 50% effective dose (ED50)--that amount of drug needed to reduce plaque count by 50%--was calculated to give the following values: […]

Q: Which results are given for `CCCCN1C[C@H](O)[C@@H](O)[C@H](O)[C@H]1CO` [N-Bu-DNJ, Nbutyl deoxynojirimycin]?
A: PFU ([1]; 0.5 mM, 5 days HEF growth): 8.5 × 10^5 PFU (per ml maintenance medium; Plaque Count (infectivity titre) ([1]; 0.5 mM, 5 days growth): ~ 200; PFU ([1]; 0.5 mM, 6 days HEF growth): 1.3 × 10^4 PFU (per ml maintenance medium; Plaque Count (infectivity titre) ([1]; 0.5 mM, 6 days growth): ~ 200; PFU ([1]; 2.0 mM, 5 days HEF growth): 1.4 × 10^3 PFU (per ml maintenance medium; PFU ([1]; 2.0 mM, 6 days HEF growth): 5.5 × 10^2 PFU (per ml maintenance medium; activity at 500 µM ([1]; Human betaherpesvirus 5, MRC5, 120 h, 0.5 mM, 5 days HEF growth): 5.3%; activity at 2000 µM ([1]; Human betaherpesvirus 5, MRC5, 120 h, 2.0 mM, 5 days HEF growth): 0.88%; activity at 500 µM ([1]; Human betaherpesvirus 5, MRC5, 144 h, 0.5 mM, 6 days HEF growth): 3.5%; activity at 2000 µM ([1]; Human betaherpesvirus 5, MRC5, 144 h, 2.0 mM, 6 days HEF growth): 0.15%; EC50 ([2]; Human betaherpesvirus 5, HEF, CMV, calculated from least squares fit of FIG. 1, read-out: 50% effective dose (ED50)): 570 µM; activity at 220 µM ([2]; Human betaherpesvirus 5, HEF, Table IV, 0.22 mM, read-out: % Virus control): 87%; activity at 450 µM ([2]; Human betaherpesvirus 5, HEF, Table IV, 0.45 mM, read-out: % Virus control): 52%; activity at 900 µM ([2]; Human betaherpesvirus 5, HEF, Table IV, 0.90 mM, read-out: % Virus control): 32%; activity at 1800 µM ([2]; Human betaherpesvirus 5, HEF, Table IV, 1.8 mM, read-out: % Virus control): 17%; Plaque Count Avg ([2]; Table IV, 0.22 mM): 153; Plaque Count ([2]; Table IV, 0.22 mM, replicate counts): 159,156,144,153; Plaque Count Avg ([2]; Table IV, 0.45 mM): 92; Plaque Count Avg ([2]; Table IV, 0.90 mM): 56; Plaque Count Avg ([2]; Table IV, 1.8 mM): 30; reduction of CMV infection of HEF cells (in words) ([2]; compared with castanospermine): reduces CMV infection of HEF cells at about the same dosage as does castanospermine; HEF cell growth (in words) [3]: grew normally; cytotoxicity relative to castanospermine (in words) [4]: substantially less cytotoxic; antiviral effect on HSV type I strain (in words) [5]: only minor effect; antiviral activity against HSV type II (in words) [6]: substantially reduce herpesvirus type II infection of HEF cells; also recorded: strong antiviral activity; EC50 ([6]; HEF, HSV type II, amount of drug needed to reduce plaque count by 50%, read-out: 50% effective dose (ED50)): 1200 µM; activity at 220 µM ([6]; HEF, Table I, 0.22 mM, read-out: % Virus Control): 85%; activity at 450 µM ([6]; HEF, Table I, 0.45 mM, read-out: % Virus Control): 60%; activity at 900 µM ([6]; HEF, Table I, 0.9 mM, read-out: % Virus Control): 37%; activity at 1800 µM ([6]; HEF, Table I, 1.8 mM, read-out: % Virus Control): 40%; activity at 3600 µM ([6]; HEF, Table I, 3.6 mM, read-out: % Virus Control): 7.7%; activity at 560 µM ([6]; HEF, Table III, 0.56 mM, read-out: % Virus Control): 56.9%; activity at 1120 µM ([6]; HEF, Table III, 1.12 mM, read-out: % Virus Control): 51%; activity at 2250 µM ([6]; HEF, Table III, 2.25 mM, read-out: % Virus Control): 27.5%; activity at 4500 µM ([6]; HEF, Table III, 4.5 mM, read-out: % Virus Control): 17.6%; Plaque Count Avg ([6]; Table I, 0.22 mM): 66; Plaque Count ([6]; Table I, 0.22 mM): 80,52; Plaque Count Avg ([6]; Table I, 0.45 mM): 47; Plaque Count ([6]; Table I, 0.45 mM): 42,53; Plaque Count Avg ([6]; Table I, 0.9 mM): 29; Plaque Count ([6]; Table I, 0.9 mM): 36,22; Plaque Count Avg ([6]; Table I, 1.8 mM): 31; Plaque Count ([6]; Table I, 1.8 mM): 41,20; Plaque Count Avg ([6]; Table I, 3.6 mM): 6; Plaque Count ([6]; Table I, 3.6 mM): 5,7; Plaque Count Avg ([6]; Table III, 0.56 mM): 29; Plaque Count Avg ([6]; Table III, 1.12 mM): 26; Plaque Count Avg ([6]; Table III, 2.25 mM): 14; Plaque Count Avg ([6]; Table III, 4.5 mM): 9
